SMILES strings stand for the structures.

Broadly, the inhibition is the change of the read-out against control, counted positive when it falls.

The first assay addresses T1, His-hMAGL (recombinant polyhistidine tagged human MAGL protein) (Homo sapiens, UniProt Q99685).
T1 construct: polyhistidine (His) (N); made in house; host or cells: E. coli BL21(DE3)
T1 sequence (Q99685 1-303): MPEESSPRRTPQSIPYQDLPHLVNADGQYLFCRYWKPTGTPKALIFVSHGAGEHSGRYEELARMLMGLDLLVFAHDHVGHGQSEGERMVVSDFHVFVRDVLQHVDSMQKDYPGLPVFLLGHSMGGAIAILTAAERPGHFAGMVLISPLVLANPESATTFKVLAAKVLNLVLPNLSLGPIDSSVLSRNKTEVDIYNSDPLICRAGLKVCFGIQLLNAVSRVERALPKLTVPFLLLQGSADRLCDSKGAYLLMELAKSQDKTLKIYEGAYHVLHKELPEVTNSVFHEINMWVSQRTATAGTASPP
The experiment in a line: Measurement of MAGL inhibitory activity (RapidFire-mass spectrometry of arachidonic acid produced from 2-arachidonylglycerol). The format is biochemical. The note with it: test compound 10 μM; His-hMAGL; substrate 2-arachidonylglycerol; 60 min preincubation. The method, then: Furthermore, acetonitrile (50 μL) containing 3 μM arachidonic acid-d8 (Cayman Chemical Company) was added and the mixture was stirred.
The amount of arachidonic acid in the obtained enzyme reaction mixture was calculated by measuring by RapidFire-mass spectrometry and correcting by the amount of arachidonic acid-d8. High Throughput online solid phase extraction was performed using RapidFire 300™ system (Agilent Technologies, Inc.). Samples were loaded on SPE C4 cartridge (Agilent Technologies, Inc.) and desalted with 0.2 (v/v) % acetic acid (Wako Pure Chemical Industries, Ltd.) in ultrapure water/acetonitrile (70/30, v/v) at a flow rate of 1.5 mL/min, eluted at a flow rate of 0.5 mL/min with 0.2(v/v) % acetic acid dissolved in acetonitrile/ultrapure water (90/10, v/v), and injected into the mass spectrometry part. The injection needle was washed with ultrapure water (500 millisecond) and acetonitrile (500 millisecond) to minimize carry-over. […] The RapidFire300 system was controlled by RapidFire UI software version 3.6 (Agilent Technologies, Inc.).
The mass spectrometry of the resultant product was performed using API4000™ triple quadrupole mass spectrometer (AB SCIEX) equipped with an electrospray ion source (TurboIon Spray™) in a negative selected reaction monitoring (SRM) mode. The conditions of SRM are shown below. The parameters of the instrument were optimized as follows: capillary temperature 600° C., ion spray voltage −4.5 kV, collision gas 8, curtain gas 15 psi, ion source gas 1 60 psi, ion source gas 2 60 psi. The mass spectrometer was controlled by Analyst™ software version 1.5.1 (AB SCIEX). The peak area integration was analyzed using RapidFire integrator software version 3.6 (Agilent Technologies, Inc.).
MAGL inhibitory rate (%) was calculated according to the following calculation formula. (1-(arachidonic acid production amount of test compound addition group−arachidonic acid production amount of enzyme-free group)÷(arachidonic acid production amount of test compound-free group−arachidonic acid production amount of enzyme-free group))×100
Take `Cc1ccc(OC(C)C2CCN(C(=O)[C@H]3C[C@]4(COC(=O)N4)C3)CC2)c(F)c1` (stereo partly drawn) [Example 46, (2s,4s)-2-((4-(1-(2-fluoro-4-methylphenoxy)ethyl)piperidin-1-yl)carbonyl)-7-oxa-5-azaspiro[3.4]octan-6-one]: the “% inhibition (10 μM)” value was 100%.
On the same count and under the same terms, next, `CC(Oc1ccc(F)cc1C(F)(F)F)C1CCN(C(=O)[C@H]2C[C@]3(COC(=O)N3)C2)CC1` (stereo partly drawn) [Example 66, (2s,4s)-2-((4-(1-(4-fluoro-2-(trifluoromethyl)phenoxy)ethyl)piperidin-1-yl)carbonyl)-7-oxa-5-azaspiro[3.4]octan-6-one]: 100%.

The assay is the same for the next values; noted with them: test compound 10 μM; His-hMAGL; substrate 2-arachidonylglycerol; 60 min preincubation; 10 µM.
With `CC1(C2CCN(C(=O)[C@H]3C[C@]4(COC(=O)N4)C3)CC2)Cc2cc(C(F)(F)F)ccc2O1` (stereo partly drawn) [Example 69, (2s,4s)-2-((4-(2-methyl-5-(trifluoromethyl)-2,3-dihydro-1-benzofuran-2-yl)piperidin-1-yl)carbonyl)-7-oxa-5-azaspiro[3.4]octan-6-one], the “% inhibition (10 μM)” value is 101%.
For `CC1(C2CCN(C(=O)[C@H]3C[C@]4(COC(=O)N4)C3)CC2)Cc2ccc(C(F)(F)F)cc2O1` (stereo partly drawn) [Example 71, (2s,4s)-2-((4-(2-methyl-6-(trifluoromethyl)-2,3-dihydro-1-benzofuran-2-yl)piperidin-1-yl)carbonyl)-7-oxa-5-azaspiro[3.4]octan-6-one], the “% inhibition (10 μM)” value worked out at 101%.
In the case of `Cc1cc(F)ccc1OC(C)C1CCN(C(=O)[C@H]2C[C@]3(COC(=O)N3)C2)CC1` (stereo partly drawn) [Example 33, (2s,4s)-2-((4-(1-(4-fluoro-2-methylphenoxy)ethyl)piperidin-1-yl)carbonyl)-7-oxa-5-azaspiro[3.4]octan-6-one], the “% inhibition (10 μM)” value is 101%.

Staying with this assay, now noted: test compound 10 μM; His-hMAGL; substrate 2-arachidonylglycerol; 60 min preincubation; read-out: % inhibition (10 μM).
For the molecule `O=C1N[C@]2(CO1)C[C@H](C(=O)N1CCC(COc3ccc(C(F)(F)F)cc3F)CC1)C2` [Example 26, (2s,4s)-2-((4-((2-fluoro-4-(trifluoromethyl)phenoxy)methyl)piperidin-1-yl)carbonyl)-7-oxa-5-azaspiro[3.4]octan-6-one], the inhibition at 10 µM was 101%.
In the case of `CC1(C2CCN(C(=O)[C@H]3C[C@]4(COC(=O)N4)C3)CC2)Cc2ccc(C(F)(F)F)cc2O1` (stereo partly drawn) [Example 63, (2s,4s)-2-((4-(2-methyl-6-(trifluoromethyl)-2,3-dihydro-1-benzofuran-2-yl)piperidin-1-yl)carbonyl)-7-oxa-5-azaspiro[3.4]octan-6-one], the inhibition at 10 µM came to 100%.
Take `CC(Oc1ccc(F)c(F)c1F)C1CCN(C(=O)[C@H]2C[C@]3(CCC(=O)N3)C2)CC1` (stereo partly drawn) [Example 74, (2r,4s)-2-((4-(1-(2,3.4-trifluorophenoxy)ethyl)piperidin-1-yl)carbonyl)-5-azaspiro[3.4]octan-6-one]: the inhibition at 10 µM turned out to be 101%.
Still for that read-out and setting: next, `O=C1N[C@]2(CO1)C[C@H](C(=O)N1CCC3(CC1)CC(Oc1ccc(F)cc1Cl)C3)C2` [Example 62, (2s,4s)-2-((2-(2-chloro-4-fluorophenoxy)-7-azaspiro[3.5]non-7-yl)carbonyl)-7-oxa-5-azaspiro[3.4]octan-6-one]: 100%; `O=C1N[C@]2(CO1)C[C@H](C(=O)N1CCC(OCc3ccc(Cl)cc3Cl)CC1)C2` [Example 24, (2s,4s)-2-((4-((2,4-dichlorobenzyl)oxy)piperidin-1-yl)carbonyl)-7-oxa-5-azaspiro[3.4]octan-6-one]: 100%.
Same read-out and setting: the result for `CC(Oc1ccc(F)cc1C(F)(F)F)C1CCN(C(=O)[C@H]2C[C@]3(CCC(=O)N3)C2)CC1` (stereo partly drawn) [Example 73, (2r,4s)-2-((4-(1-(4-fluoro-2-(trifluoromethyl)phenoxy)ethyl)piperidin-1-yl)carbonyl)-5-azaspiro[3.4]octan-6-one] reads 100%; that for `CC(Oc1ccc(F)cc1C(F)(F)F)C1CCN(C(=O)[C@H]2C[C@]3(COC(=O)N3)C2)CC1` (stereo partly drawn) [Example 59, (2s,4s)-2-((4-(1-(4-fluoro-2-(trifluoromethyl)phenoxy)ethyl)piperidin-1-yl)carbonyl)-7-oxa-5-azaspiro[3.4]octan-6-one], 100%.
As to `Cc1cc(COC2CN(C(=O)[C@H]3C[C@]4(COC(=O)N4)C3)C2)c(F)cc1C(F)(F)F` [Example 115, (2s,4s)-2-((3-((2-fluoro-5-methyl-4-(trifluoromethyl)benzyl)oxy)azetidin-1-yl)carbonyl)-7-oxa-5-azaspiro[3.4]octan-6-one], the inhibition at 10 µM is 100%.
In the case of `CC(Oc1ccc(C2CC2)cc1F)C1CCN(C(=O)[C@H]2C[C@]3(COC(=O)N3)C2)CC1` (stereo partly drawn) [Example 47, (2s,4s)-2-((4-(1-(4-cychopropyl-2-fluorophenoxy)ethyl)piperidin-1-yl)carbonyl)-7-oxa-5-azaspiro[3.4]octan-6-one], the inhibition at 10 µM is 100%.
The same measure, in the same setting: the result for `O=C1N[C@]2(CO1)C[C@H](C(=O)N1CCC(COc3ccc(CCF)cc3F)CC1)C2` [Example 64, (2s,4s)-2-((4-((2-fluoro-4-(2-fluoroethyl)phenoxy)methyl)piperidin-1-yl)carbonyl)-7-oxa-5-azaspiro[3.4]octan-6-one] reads 101%; that for `CC1(C2CCN(C(=O)[C@H]3C[C@]4(COC(=O)N4)C3)CC2)Cc2cc(F)cc(Cl)c2O1` (stereo partly drawn) [Example 27, (2s,4s)-2-((4-(7-chloro-5-fluoro-2-methyl-2,3-dihydro-1-benzofuran-2-yl)piperidin-1-yl)carbonyl)-7-oxa-5-azaspiro[3.4]octan-6-one], 101%; that for `O=C1N[C@]2(CO1)C[C@H](C(=O)N1CC(COc3ccc(C(F)(F)F)cc3Cl)C1)C2` [Example 76, (2s,4s)-2-((3-((2-chloro-4-(trifluoromethyl)phenoxy)methyl)azetidin-1-yl)carbonyl)-7-oxa-5-azaspiro[3.4]octan-6-one], 100%.
Same read-out and setting: the result for `O=C1N[C@]2(CO1)C[C@H](C(=O)N1CC(CC(F)(F)c3ccc(C(F)(F)F)c(Cl)c3)C1)C2` [Example 110, (2s,4s)-2-((3-(2-(3-chloro-4-(trifluoromethyl)phenyl)-2,2-difluoroethyl)azetidin-1-yl)carbonyl)-7-oxa-5-azaspiro[3.4]octan-6-one] reads 100%; that for `O=C1N[C@]2(CO1)C[C@H](C(=O)N1CC(CC(F)(F)c3ccc(C(F)(F)F)cc3Cl)C1)C2` [Example 117, (2s,4s)-2-((3-(2-(2-chloro-4-(trifluoromethyl)phenyl)-2,2-difluoroethyl)azetidin-1-yl)carbonyl)-7-oxa-5-azaspiro[3.4]octan-6-one], 100%; that for `N#Cc1cc(Cl)ccc1OCC1CCN(C(=O)[C@H]2C[C@]3(COC(=O)N3)C2)CC1` [Example 129, 5-chloro-2-((1-(((2s,4s)-6-oxo-7-oxa-5-azaspiro[3.4]oct-2-yl)carbonyl)piperidin-4-yl)methoxy)benzonitrile], 100%.
The same measure, in the same setting: the result for `CCc1cc(OCC2CN(C(=O)[C@H]3C[C@]4(COC(=O)N4)C3)C2)c(F)cc1C(F)(F)F` [Example 86, (2s,4s)-2-((3-((5-ethyl-2-fluoro-4-(trifluoromethyl)phenoxy)methyl)azetidin-1-yl)carbonyl)-7-oxa-5-azaspiro[3.4]octan-6-one] reads 100%; that for `O=C1N[C@]2(CO1)C[C@H](C(=O)N1CC(OCc3cc(F)c(C(F)(F)F)cc3F)C1)C2` [Example 101, (2s,4s)-2-((3-((2,5-difluoro-4-(trifluoromethyl)benzyl)oxy)azetidin-1-yl)carbonyl)-7-oxa-5-azaspiro[3.4]octan-6-one], 100%; that for `CC1(C2CCN(C(=O)[C@H]3C[C@]4(COC(=O)N4)C3)CC2)Cc2cc(F)ccc2O1` (stereo partly drawn) [Example 4, (2s,4s)-2-((4-(5-fluoro-2-methyl-2,3-dihydro-1-benzofuran-2-yl)piperidin-1-yl)carbonyl)-7-oxa-5-azaspiro[3.4]octan-6-one], 100%.
For `CC(Oc1c(F)cc(F)cc1F)C1CCN(C(=O)[C@H]2C[C@]3(COC(=O)N3)C2)CC1` (stereo partly drawn) [Example 85, (2s,4s)-2-((4-(1-(2,4,6-trifluorophenoxy)ethyl)piperidin-1-yl)carbonyl)-7-oxa-5-azaspiro[3.4]octan-6-one], the inhibition at 10 µM was 100%.

(Values after patent publication US10323026B2, “Heterocyclic compound” (Takeda Pharmaceutical Company Limited, priority 2016, dated 2019).)
